Earlier results in patent US20030114497A1 (priority 2001, published 2003).

Assays:
calcium channel = conditions: see WO 95/05822
[1] = tested on: smooth muscle cell migration; conditions: see WO 95/25722

In the case of `CCOC(=O)C1=C(COCCN)NC(C)=C(C(=O)OC)[C@H]1c1ccccc1Cl` (single isomer, unassigned) [R(+) isomer], the “calcium channel blocking activity” value (calcium channel) is listed as “little or no calcium channel blocking activity” and the “inhibition of smooth muscle cell migration” value [1] is listed as “potent inhibitor”.
